Data set [1] relates to RAW264.7. Put plainly: Antiinflammatory activity against mouse RAW264.7 cells assessed as inhibition of LPS-induced IL-6 production at 10 uM pretreated with compound for 0.5 hrs followed by incubation with LPS for 24 hrs by ELISA. It counts as functional. The note with it: time 24.5 hrs. For orientation: An ELISA detects its analyte on a solid surface through an enzyme-linked reagent.

The nature of data set [2]: Cytotoxicity against mouse RAW264.7 cells assessed as cell viability at 10 uM incubated for 24 hrs by MTT assay relative to control. It counts as toxicity, cell-based. The note with it: read-out: Activity.
The subject of data set [3] is RAW264.7. In words: Antiinflammatory activity against mouse RAW264.7 cells assessed as inhibition of LPS-induced IL-6 production pretreated with compound for 0.5 hrs followed by incubation with LPS for 24 hrs by ELISA. It counts as functional, cell-based.
For data set [4], the system named is Mus musculus. Put plainly: Antiinflammatory activity against LPS-induced acute lung injury C57BL/6J mouse model assessed as decrease in total protein concentration in BALF at 20 mg/kg, ig administered every 12 hrs for 3 times and 30 mins later injected with LPS and measured after 5 hrs. It counts as functional, organism-based. The note with it: time 41.5 hrs.

Data set [5] deals with Mus musculus. In words: Antiinflammatory activity against LPS-induced acute lung injury C57BL/6J mouse model assessed as decrease in neutrophil number in BALF at 20 mg/kg, ig administered every 12 hrs for 3 times and 30 mins later injected with LPS and measured after 5 hrs by Wrigth-Giemsa staining. It counts as functional, organism-based. The note with it: time 41.5 hrs.

Data set [6] concerns Mus musculus. In words: Antiinflammatory activity against LPS-induced acute lung injury C57BL/6J mouse model assessed as decrease in LPS-induced IL-6 production in BALF at 20 mg/kg, ig administered every 12 hrs for 3 times and 30 mins later injected with LPS and measured after 5 hrs by ELISA. It counts as functional, organism-based. The settings on record: time 41.5 hrs.
The test system of data set [7] is Mus musculus. In words: Antiinflammatory activity against LPS-induced acute lung injury C57BL/6J mouse model assessed as decrease in ratio of lung wet to dry weight at 20 mg/kg, ig administered every 12 hrs for 3 times and 30 mins later injected with LPS and measured after 5 hrs. It counts as functional, organism-based. The settings on record: time 41.5 hrs.
Data set [8] has as its system Mus musculus. Put plainly: Antiinflammatory activity against LPS-induced acute lung injury C57BL/6J mouse model assessed as decrease in disruption of lung tissue structure and alveolar wall thickening at 20 mg/kg, ig administered every 12 hrs for 3 times and 30 mins later injected with LPS and measured after 5 hrs. The settings on record: time 41.5 hrs. It counts as functional, organism-based.

Data set [9] concerns Mus musculus. Put plainly: Antiinflammatory activity against LPS-induced acute lung injury C57BL/6J mouse model assessed as decrease in LPS-induced TNF-alpha production in BALF at 20 mg/kg, ig administered every 12 hrs for 3 times and 30 mins later injected with LPS and measured after 5 hrs by ELISA. The note with it: time 41.5 hrs. It counts as functional, organism-based.
The subject of data set [10] is Mus musculus. In words: Antiinflammatory activity against LPS-induced acute lung injury C57BL/6J mouse model assessed as decrease in LPS-induced IL-6 production in serum at 20 mg/kg, ig administered every 12 hrs for 3 times and 30 mins later injected with LPS and measured after 5 hrs by ELISA. It counts as functional, organism-based. The note with it: time 41.5 hrs.

For data set [11], the system named is Mus musculus. In words: Antiinflammatory activity against LPS-induced acute lung injury C57BL/6J mouse model assessed as decrease in LPS-induced TNF-alpha production in serum at 20 mg/kg, ig administered every 12 hrs for 3 times and 30 mins later injected with LPS and measured after 5 hrs by ELISA. It counts as functional, organism-based. The settings on record: time 41.5 hrs.

Data set [12] deals with Mus musculus. In words: Antiinflammatory activity against LPS-induced acute lung injury C57BL/6J mouse model assessed as decrease in LPS-induced F4/80 expression in lungs at 20 mg/kg, ig administered every 12 hrs for 3 times and 30 mins later injected with LPS and measured after 5 hrs by immunohistochemical staining based analysis. It counts as functional, organism-based. The settings on record: time 41.5 hrs.

Data set [13] has as its system Mus musculus. Put plainly: Antiinflammatory activity against LPS-induced hyperemia C57BL/6J mouse model assessed as decrease in LPS-induced death rate at 20 mg/kg, po administered 1 hr prior to LPS stimulation and measured for 1 week. It counts as functional, organism-based. The settings on record: time 1.0 weeks.
Data set [14] relates to Mus musculus. Put plainly: Antiinflammatory activity against LPS-induced hyperemia C57BL/6J mouse model assessed as decrease in LPS-induced weight loss at 20 mg/kg, po administered 1 hr prior to LPS stimulation and measured for 1 week. The note with it: time 1.0 weeks. It counts as functional, organism-based.
Data set [15] deals with Mus musculus. Put plainly: Antiinflammatory activity against LPS-induced hyperemia C57BL/6J mouse model assessed as decrease in LPS-induced morphological changes in spleen at 20 mg/kg, po administered 1 hr prior to LPS stimulation by Hematoxylin-Eosin staining based analysis. It counts as functional, organism-based.
Data set [16] concerns RAW264.7. In words: Antiinflammatory activity against mouse RAW264.7 cells assessed as inhibition of LPS-induced TNF-alpha production pretreated with compound for 0.5 hrs followed by incubation with LPS for 24 hrs by ELISA. It counts as functional, cell-based.

Active and inactive are the calls of the source. The calls are words filed in the database; no cut-off is given here.

As a reminder, the inhibition is the relative decrease from the control value, in per cent. As a reminder, the IC50 is the concentration that inhibits the measured activity by half. `O=C(/C=C/c1ccccc1)NC(=O)c1cccs1`: in the data set on RAW264.7 [1], the inhibition at 10 µM is 94.8%. In addition, the viability at 24 h, 10 µM in data set [2] was 110%. Moreover, the concentration for half-maximal inhibition (IC50) with RAW264.7 [3] amounted to 1.59 µM; with RAW264.7 [16], 15.3 µM. Moreover, the inhibition result in the data set on RAW264.7 [3] (time 24.5 hrs) and with RAW264.7 [16] (time 24.5 hrs) was “Dose-Dependent Effect” each time. Also, the outcome in the data set with Mus musculus [4], in the data set with Mus musculus [5], in the data set on Mus musculus [6], in the data set with Mus musculus [7], in the data set with Mus musculus [8] and in the data set on Mus musculus [9] was Active. For the same compound, the outcome with Mus musculus [10], in the data set on Mus musculus [11], in the data set with Mus musculus [12], with Mus musculus [13], in the data set on Mus musculus [14] and with Mus musculus [15] was Active.

As to `O=C(CCc1ccccc1)NC(=O)c1cccs1`, the inhibition entry in the data set on RAW264.7 [1] is “Active”.

Regarding `O=C(NC(=O)C1CCNC1)c1ccccc1` (configuration not stated), the inhibition at 10 µM with RAW264.7 [1] was determined as 74%. Further, in [2], the viability at 24 h, 10 µM amounted to 115%.

As for `O=C(CCc1ccccc1)NCc1cccs1`, in the data set on RAW264.7 [1], the inhibition result is “Active”.

As for `O=C(/C=C/c1ccccc1)NC(=O)c1ccc2ccccc2n1`, the inhibition at 10 µM in the data set on RAW264.7 [1] came to 83.3%. The viability at 24 h, 10 µM in data set [2] worked out at 93.2%.

Consider `O=C(/C=C/c1ccccc1)NC(=O)/C=C/c1ccccc1`, for which, in the data set on RAW264.7 [1], the inhibition at 10 µM turned out to be 82.5%. Also, the viability at 24 h, 10 µM in data set [2] worked out at 20.2%.

Consider `O=C(/C=C/c1ccccc1)NC(=O)c1ccco1`, for which the inhibition at 10 µM in the data set on RAW264.7 [1] turned out to be 88.6%. For the same compound, the viability at 24 h, 10 µM in data set [2] came to 97.3%.

For `C[C@@H]1C[C@H]2[C@@H]3CCC4=CC(=O)C=C[C@]4(C)[C@@]3(F)[C@@H](O)C[C@]2(C)[C@@]1(O)C(=O)CO`, the result with Mus musculus [7], in the data set on Mus musculus [8] and in the data set with Mus musculus [12] was Active.

Take `CC(C)Cc1ccc(C(C)C(=O)O)cc1` (configuration not stated) [IBUPROFEN]: the inhibition at 10 µM in the data set with RAW264.7 [1] amounted to 61%. In data set [2], the viability at 24 h, 10 µM worked out at 132%.

For `O=C(NCCCc1ccccc1)c1cccs1`, the inhibition result with RAW264.7 [1] was “Active”.

With `c1ccc(CCCNCc2cccs2)cc1`, the inhibition result in the data set on RAW264.7 [1] is “Active”.

Regarding `O=C(/C=C/c1ccccc1)NCc1cccs1`, in the data set with RAW264.7 [1], the inhibition entry is “Active”.

On to `COc1ccc2cc(C(C)C(=O)NC(=O)c3ccccc3)ccc2c1` (configuration not stated), for which the inhibition at 10 µM with RAW264.7 [1] stood at 71.2%. Also, in [2], the viability at 24 h, 10 µM is 89.7%.

As to `COc1ccc2cc(C(C)C(=O)NC(=O)/C=C/c3ccccc3)ccc2c1` (configuration not stated), the inhibition at 10 µM in the data set with RAW264.7 [1] stood at 79.1%. Further, in [2], the viability at 24 h, 10 µM was determined as 78.5%.

Take `O=C(NC(=O)c1cccnc1)c1ccccc1`: the inhibition at 10 µM with RAW264.7 [1] was determined as 62%. Moreover, the viability at 24 h, 10 µM in [2] amounted to 103%.

As to `O=C(/C=C/c1ccccc1)NC(=O)c1cc2ccccc2[nH]1`, the inhibition at 10 µM with RAW264.7 [1] turned out to be 32%. Further, in data set [2], the viability at 24 h, 10 µM came out at 32.4%.

In the case of `COc1ccc2cc([C@H](C)C(=O)O)ccc2c1` [NAPROXEN], the inhibition at 10 µM in the data set on RAW264.7 [1] amounted to 52.2%. For the same compound, the viability at 24 h, 10 µM in data set [2] amounted to 112%.

Turning to `COc1cc(/C=C/C(=O)CC(=O)/C=C/c2ccc(O)c(OC)c2)ccc1O` [CURCUMIN], the inhibition at 10 µM in the data set on RAW264.7 [1] worked out at 87%. Also, the viability at 24 h, 10 µM in data set [2] is 120%.

For the compound `O=C(NC(=O)c1ccc2ccccc2n1)c1ccccc1`, the inhibition at 10 µM in the data set on RAW264.7 [1] amounted to 74%. Also, the viability at 24 h, 10 µM in data set [2] was determined as 88.2%.

For the compound `O=C(NC(=O)c1ccco1)c1ccccc1`, the inhibition at 10 µM with RAW264.7 [1] amounted to 70.2%. The viability at 24 h, 10 µM in data set [2] was found to be 106%.

On to `COc1ccc2cc(C(C)C(=O)NC(=O)C(C)c3ccc(CC(C)C)cc3)ccc2c1` (configuration not stated), for which, in the data set with RAW264.7 [1], the inhibition at 10 µM was 55.7%. Further, the viability at 24 h, 10 µM in data set [2] came out at 117%.

Turning to `O=C(/C=C/c1ccccc1)NC(=O)C1CCNC1` (configuration not stated), the inhibition at 10 µM in the data set on RAW264.7 [1] turned out to be 74%. Moreover, the viability at 24 h, 10 µM in data set [2] stood at 130%.

As to `CC(C)(C)OC(=O)N1CCC(C(=O)NC(=O)c2ccccc2)C1` (configuration not stated), in the data set with RAW264.7 [1], the inhibition at 10 µM was found to be 60.6%. Besides, the viability at 24 h, 10 µM in data set [2] worked out at 143%.

On to `CC(C)(C)OC(=O)N1CCC(C(=O)NC(=O)/C=C/c2ccccc2)C1` (configuration not stated), for which, in the data set with RAW264.7 [1], the inhibition at 10 µM was 77.5%. In addition, in data set [2], the viability at 24 h, 10 µM came to 135%.

As for `CC(C)Cc1ccc(C(C)C(=O)NC(=O)/C=C/c2ccccc2)cc1` (configuration not stated), in the data set with RAW264.7 [1], the inhibition at 10 µM was determined as 90.1%. For the same compound, the viability at 24 h, 10 µM in data set [2] came to 94.4%.

Regarding `O=C(/C=C/c1ccccc1)NC(=O)c1ccccc1`, the inhibition at 10 µM in the data set on RAW264.7 [1] is 90.7%. Further, in data set [2], the viability at 24 h, 10 µM stood at 72.8%.

Turning to `CC(C)Cc1ccc(C(C)C(=O)NC(=O)c2ccccc2)cc1` (configuration not stated), the inhibition at 10 µM in the data set on RAW264.7 [1] worked out at 71.1%. In addition, the viability at 24 h, 10 µM in data set [2] turned out to be 91%.

As for `O=C(NC(=O)c1cc2ccccc2[nH]1)c1ccccc1`, in the data set with RAW264.7 [1], the inhibition at 10 µM is 77.2%. The viability at 24 h, 10 µM in [2] is 90.5%.

Turning to `O=C(NC(=O)c1ccccc1)c1ccccc1`, the inhibition at 10 µM with RAW264.7 [1] came to 66.7%. Also, the viability at 24 h, 10 µM in data set [2] was found to be 109%.

On to `O=C(NC(=O)c1cccs1)c1ccccc1`, for which, in the data set with RAW264.7 [1], the inhibition at 10 µM turned out to be 62.3%. The viability at 24 h, 10 µM in [2] was determined as 99.3%.

Values taken from ChEMBL document CHEMBL5325447, “Synthesis and SAR study of novel diimide skeleton compounds with the anti-inflammatory activities in vitro and in vivo” (Bioorg Med Chem, 2023).
